Laboratory results from PubChem BioAssay (NCI).
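Five compound concentrations were applied to cells in 96-well plates for 48 hours; endpoints were derived by simple linear interpolation of the resulting dose-response curve. GI50 = concentration required for 50% inhibition of growth. TGI denotes the concentration required for complete inhibition of growth.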

Assays:
Assay in all cases: DTP human tumour cell line panel, 48 h
SR leukemia = test system: SR leukemia
UACC-257 melanoma = test system: UACC-257 melanoma
SK-MEL-28 melanoma = test system: SK-MEL-28 melanoma
HCT-116 colon = test system: HCT-116 colon
786-0 renal = test system: 786-0 renal
IGROV1 ovarian = test system: IGROV1 ovarian
MDA-MB-435 = test system: MDA-MB-435
MALME-3M melanoma = test system: MALME-3M melanoma
UO-31 renal = test system: UO-31 renal
HT29 colon = test system: HT29 colon

Compound	GI50 (SR leukemia)	TGI (SR leukemia)	GI50 (UACC-257 melanoma)	TGI (UACC-257 melanoma)	GI50 (SK-MEL-28 melanoma)	TGI (SK-MEL-28 melanoma)	GI50 (HCT-116 colon)	TGI (HCT-116 colon)	GI50 (786-0 renal)	TGI (786-0 renal)	GI50 (IGROV1 ovarian)	TGI (IGROV1 ovarian)	GI50 (MDA-MB-435)	TGI (MDA-MB-435)	GI50 (MALME-3M melanoma)	TGI (MALME-3M melanoma)	GI50 (UO-31 renal)	TGI (UO-31 renal)	GI50 (HT29 colon)	TGI (HT29 colon)
CC(=O)N[C@@H](Cc1ccc(OP(=O)(O)O)cc1)C(=O)N[C@H]1CCC(=O)N2CCC[C@@H](C(=O)Nc3cccc4ccccc34)N2C1=O	> 25 µM	> 25 µM	> 25 µM	> 25 µM	> 25 µM	> 25 µM	> 25 µM	> 25 µM	> 25 µM	> 25 µM	> 25 µM	> 25 µM	> 25 µM	> 25 µM	> 25 µM	> 25 µM	> 21.4 µM	> 25 µM	> 25 µM	> 25 µM
Fc1cc(-c2nnc3n2N=C(c2ccc(Cl)cc2)CS3)c(Cl)cc1Cl	0.49 µM	> 100 µM	14.7 µM	28.8 µM	7.56 µM	34.8 µM	2.36 µM	5.85 µM	2.08 µM	3.55 µM	4.25 µM	> 37.6 µM	4.97 µM	18.4 µM	2.75 µM	10.5 µM	2.99 µM	> 20.5 µM	2.71 µM	
